In patent US20090018194A1, “Use of antimicrobial agents derived from alliaceous plants for the prevention and control of crop diseases, post-harvest rot and as environmental disinifectant products” (DMC Research Center, S.L., priority 2007, published 2009):

What was measured:
[1] = test system: Bacillus subtilis ATCC 6633; assay: agar diffusion test with impregnated cellulose discs; format: cell-based; settings: incl. 6 mm disc
[2] = test system: Enteroccus faecalis ATCC 29212; assay: as above; format: cell-based; settings: incl. 6 mm disc
[3] = test system: Listeria innocua CECT 4030; assay: as above; format: cell-based; settings: incl. 6 mm disc
Fusarium spp. = assay: field tests on affected asparagus, Fusarium spp. in the soil; format: in vivo; settings: for % Reduction / % elimination: soil, 60 days after application, compared to untreated control
Method: The treatment doses used were 250, 500 and 1000 ppm of both active principles (PT and PTSO), and the initial incidence of the pathogen was compared with its presence 60 days after its application.
To analyze the growth of the crops infected by Fusarium spp. after the treatments, root and soil samples were taken and tests were performed in the laboratory to investigate the incidence of the pathogen in the roots and soil. The cultivation media used were potato dextrose agar and rose bengal agar (to prevent the invasive character of the Mucoralean fungi).
The soil analysis was conducted by sequential dilutions of the soils in physiological serum with a subsequent sowing in the above mentioned media. The analysis of the roots was performed after dissection of the infected tissues, which were deposited in triplicate on filter paper located above both media, and their evolution over time was studied.
The data are expressed as a percentage of elimination and reduction as a function of the treatment dose compared to the untreated control samples.

Penicillium digitatum [4] = assay: reduction of spores in suspension in absence or presence of organic matter; format: cell-based; settings: PTS 750 ppm 1 min.
From the text: (§1) In addition, under the real conditions of a disinfecting bath for boxes, crates and containers, as well as for the disinfection of rooms and work surfaces, organic material (soil residue, rotten fruit, leaves etc.) is generally present, which can reduce the action of the disinfectant agent. Therefore, the effectiveness of PTS and PTSO has also been assessed in the presence of organic matter on two pathogens that cause post-harvest rot of stone fruit (Penicillium expansum) and citrus fruit (Penicillium digitatum).

Penicillium expansum = assay: as above; format: cell-based; settings: PTS 750 ppm 1 min.
From the text: as §1

Penicillium digitatum [5] = assay: post-harvest rotting of inoculated oranges (Navelina), immersion treatment; format: in vivo
Method: (§2) This example considers the effectiveness of the active natural principles PTS and PTSO in two different doses for the control of post-harvest rotting of oranges ([…] variety), caused by controlled artificial inoculation with the fungi Penicillium digitatum, Penicillium expansum, Phytophthora citrophthora and Geotrichum candidum, the principal pathogens of this fruit. The inoculation of the oranges was carried out with suspensions of spores of the different wild fungal strains selected, according to the methodology described below. The first step was the isolation and identification of the fungal strains used in the study. The strains of filamentous fungi used in these tests (Penicillium digitatum, Penicillium italicum and Phytophthora citrophthora) were isolated from oranges affected by rot. In these isolation processes, it was not possible to detect any strain belonging to Geotrichum candidum, as a result of which it was necessary to obtain the latter substance from the Spanish Collection of Standard Cultures, where it is identified by reference CECT 1102. […] To promote the implantation of the inoculum of Geotrichum candidum, 200 ppm of cyclohexamide was added to the inoculum prior to its inoculation. […] The assessment of the effectiveness of PTS and PTSO comprised counting of the number of fruits affected by rot in the inoculated zone, to determine the percentage of fruit affected for each treatment and fungus inoculated, and expressing this effectiveness as a percentage of reduction of the affected fruit.

Penicillium italicum = assay: as above; format: in vivo
Method: as §2

post-harvest rot = post-harvest rot of oranges originating directly from the field (not inoculated); format: in vivo
Method: Once the oranges had been artificially contaminated, the treatments were conducted by immersing the oranges in solutions of PTS and PTSO prepared at doses of 1600 and 2500 ppm, and were stored at 20° C.
The assessment of the effectiveness of PTS and PTSO comprised counting of the number of fruits affected by rot in the inoculated zone, to determine the percentage of fruit affected for each treatment and fungus inoculated, and expressing this effectiveness as a percentage of reduction of the affected fruit.
On the basis of the results obtained by the application of PTS and PTSO to oranges of the Navelina variety originating directly from the field, both products, applied in the specified doses, are effective in the control of post-harvest rot. Both PTS and PTSO in turn reduce by 50% the quantity of fruit affected at the end of the refrigeration period (28 days at a temperature of 5° C.) compared to the untreated fruit, as a result of which they are an effective alternative to the synthetic treatments conventionally used.

[6] = test system: the most characteristic diseases that affect these crops; assay: in vivo tests against pre-harvest diseases in various crops (Table 7); settings: pre-harvest diseases and pathogens listed in Table 7
Method: B. Likewise, numerous tests were conducted “in vivo” to determine the effectiveness of the products for pre- and post-harvest treatments, and also as disinfectant agents for agricultural soils and facilities in the food processing industries.
In post-harvest treatments, tests were conducted in strawberries, citrus fruits, stone fruits and tropical fruits. Tests were also conducted on vegetable plants in a greenhouse (tomatoes, melons, zucchini, peppers, cucumbers and green beans).

[7] = organic matter Absence, 0 hours
[8] = organic matter Absence, 2 hours
[9] = organic matter Absence, 3 hours
[10] = organic matter Presence, 0 hours
[11] = organic matter Presence, 1 hour
[12] = organic matter Presence, 2 hours
[13] = organic matter Presence, 3 hours
[14] = 1600 ppm, 5 days of treatment at 20° C., title: treated with PTSO
[15] = 1600 ppm, 7 days of treatment at 20° C., title: treated with PTSO
[16] = 2500 ppm, 5 days of treatment at 20° C., title: treated with PTSO
[17] = 2500 ppm, 7 days of treatment at 20° C., title: treated with PTSO
[18] = 1600 ppm, 4 days at 20° C., title: treated with PTSO
[19] = 2500 ppm, 4 days at 20° C., title: treated with PTSO

Q: How did the “diameter of the microbial inhibition halo” value ([1]; 60 ppm) turn out when `CCCS[S+]([O-])CCC` (stereo not shown) [PTS, Propyl Propyl Thiosulfinate] was run?
A: Its value is 32 mm.

Q: And the “diameter of the microbial inhibition halo” value ([1]; 125 ppm)?
A: Its value is 35 mm.

Q: And the “diameter of the microbial inhibition halo” value ([1]; 250 ppm)?
A: Its value is 40 mm.

Q: What about the “diameter of the microbial inhibition halo” value ([1]; 500 ppm) of the same compound?
A: Its value is 55 mm.

Q: And the “diameter of the microbial inhibition halo” value ([1]; 1000 ppm)?
A: The value was 55 mm.

Q: What about the “diameter of the microbial inhibition halo” value ([2]; 60 ppm) of the same compound?
A: Its value is 15 mm.

Q: And the “diameter of the microbial inhibition halo” value ([2]; 125 ppm)?
A: The value was 22 mm.

Q: What about the “diameter of the microbial inhibition halo” value ([2]; 250 ppm) of the same compound?
A: The value was 26 mm.

Q: What about the “diameter of the microbial inhibition halo” value ([2]; 500 ppm) of the same compound?
A: The value was 30 mm.

Q: What about the “diameter of the microbial inhibition halo” value ([2]; 1000 ppm) of the same compound?
A: The value was 30 mm.

Q: And the “diameter of the microbial inhibition halo” value ([3]; 60 ppm)?
A: The value was 13 mm.

Q: And the “diameter of the microbial inhibition halo” value ([3]; 125 ppm)?
A: The value was 23 mm.

Q: What about the “diameter of the microbial inhibition halo” value ([3]; 250 ppm) of the same compound?
A: The value was 32 mm.

Q: And the “diameter of the microbial inhibition halo” value ([3]; 500 ppm)?
A: The value was 37 mm.

Q: And the “diameter of the microbial inhibition halo” value ([3]; 1000 ppm)?
A: The value was 40 mm.

Q: And the “% Reduction” value (Fusarium spp.; 250 ppm)?
A: The value was 0%.

Q: And the “% elimination” value (Fusarium spp.; 250 ppm)?
A: The value was 100%.

Q: What about the “% Reduction” value (Fusarium spp.; 500 ppm) of the same compound?
A: The value was 12.5%.

Q: What about the “% elimination” value (Fusarium spp.; 500 ppm) of the same compound?
A: Its value is 87.5%.

Q: What about the “% Reduction” value (Fusarium spp.; 1000 ppm) of the same compound?
A: The value was 0%.

Q: And the “% elimination” value (Fusarium spp.; 1000 ppm)?
A: The value was 100%.

Q: What about the “effectiveness of the application (in words)” value (Fusarium spp.; Fusarium spp. in asparagus, disinfection of agricultural soil) of the same compound?
A: Its value is “highly effective”.

Q: What about the “Reduction of the population (%)” value (Penicillium digitatum [4]; [7]) of the same compound?
A: The value was 100%.

Q: What about the “Reduction of the population (%)” value (Penicillium digitatum [4]; organic matter Absence, 1 hour) of the same compound?
A: The value was 100%.

Q: What about the “Reduction of the population (%)” value (Penicillium digitatum [4]; [8]) of the same compound?
A: The value was 100%.

Q: What about the “Reduction of the population (%)” value (Penicillium digitatum [4]; [9]) of the same compound?
A: The value was 100%.

Q: And the “Reduction of the population (%)” value (Penicillium digitatum [4]; [10])?
A: The value was 100%.

Q: What about the “Reduction of the population (%)” value (Penicillium digitatum [4]; [11]) of the same compound?
A: Its value is 100%.

Q: What about the “Reduction of the population (%)” value (Penicillium digitatum [4]; [12]) of the same compound?
A: The value was 100%.

Q: And the “Reduction of the population (%)” value (Penicillium digitatum [4]; [13])?
A: Its value is 100%.

Q: And the “Reduction of the population (%)” value (Penicillium expansum; [7])?
A: Its value is 68%.

Q: What about the “Reduction of the population (%)” value (Penicillium expansum; organic matter Absence, 1 hour) of the same compound?
A: Its value is 82%.

Q: What about the “Reduction of the population (%)” value (Penicillium expansum; [8]) of the same compound?
A: The value was 45%.

Q: What about the “Reduction of the population (%)” value (Penicillium expansum; [9]) of the same compound?
A: The value was 68%.

Q: And the “Reduction of the population (%)” value (Penicillium expansum; [10])?
A: The value was 73%.

Q: And the “Reduction of the population (%)” value (Penicillium expansum; [11])?
A: The value was 41%.

Q: What about the “Reduction of the population (%)” value (Penicillium expansum; [12]) of the same compound?
A: Its value is 36%.

Q: What about the “Reduction of the population (%)” value (Penicillium expansum; [13]) of the same compound?
A: Its value is 18%.

Q: And the “% Reduction” value (Penicillium digitatum [5]; [14])?
A: Its value is 72%.

Q: What about the “% of fruit affected” value (Penicillium digitatum [5]; [14]) of the same compound?
A: Its value is 28%.

Q: What about the “% Reduction” value (Penicillium digitatum [5]; [15]) of the same compound?
A: The value was 40%.

Q: And the “% of fruit affected” value (Penicillium digitatum [5]; [15])?
A: The value was 60%.

Q: And the “% Reduction” value (Penicillium digitatum [5]; 1600 ppm, 14 days at 20° C.)?
A: Its value is 0%.

Q: What about the “% of fruit affected” value (Penicillium digitatum [5]; 1600 ppm, 14 days at 20° C.) of the same compound?
A: Its value is 100%.

Q: And the “% Reduction” value (Penicillium digitatum [5]; 1666 ppm, 7 days at 20° C.)?
A: Its value is 23%.

Q: And the “% of fruit affected” value (Penicillium digitatum [5]; 1666 ppm, 7 days at 20° C.)?
A: Its value is 77%.

Q: And the “% Reduction” value (Penicillium digitatum [5]; [16])?
A: Its value is 85%.

Q: What about the “% of fruit affected” value (Penicillium digitatum [5]; [16]) of the same compound?
A: The value was 15%.

Q: What about the “% Reduction” value (Penicillium digitatum [5]; 2500 ppm, 7 days at 20° C.) of the same compound?
A: The value was 53%.

Q: What about the “% of fruit affected” value (Penicillium digitatum [5]; 2500 ppm, 7 days at 20° C.) of the same compound?
A: The value was 47%.

Q: And the “% Reduction” value (Penicillium digitatum [5]; [17])?
A: The value was 57%.

Q: What about the “% of fruit affected” value (Penicillium digitatum [5]; [17]) of the same compound?
A: Its value is 43%.

Q: And the “% of fruit affected” value (Penicillium digitatum [5]; 2500 ppm, 14 days at 20° C.)?
A: Its value is 36%.

Q: What about the “% Reduction” value (Penicillium italicum; [18]) of the same compound?
A: The value was 80%.

Q: And the “% of fruit affected” value (Penicillium italicum; [18])?
A: Its value is 20%.

Q: What about the “% Reduction” value (Penicillium italicum; 1600 ppm, 14 days at 20° C.) of the same compound?
A: Its value is 72%.

Q: And the “% of fruit affected” value (Penicillium italicum; 1600 ppm, 14 days at 20° C.)?
A: The value was 28%.

Q: And the “% of fruit affected” value (Penicillium italicum; 1666 ppm, 7 days at 20° C.)?
A: The value was 0%.

Q: And the “% Reduction” value (Penicillium italicum; [19])?
A: The value was 85%.

Q: And the “% of fruit affected” value (Penicillium italicum; [19])?
A: Its value is 15%.

Q: What about the “% Reduction” value (Penicillium italicum; 2500 ppm, 7 days at 20° C.) of the same compound?
A: The value was 100%.

Q: And the “% of fruit affected” value (Penicillium italicum; 2500 ppm, 7 days at 20° C.)?
A: Its value is 0%.

Q: What about the “% Reduction” value (Penicillium italicum; 2500 ppm, 14 days at 20° C.) of the same compound?
A: The value was 85%.

Q: What about the “% of fruit affected” value (Penicillium italicum; 2500 ppm, 14 days at 20° C.) of the same compound?
A: The value was 15%.

Q: And the “% of fruit affected” value (post-harvest rot; 1666 ppm, oranges refrigerated for 28 days at 5° C., 200 fruits not inoculated)?
A: Its value is 10%.

Q: What about the “reduction of the quantity of fruit affected compared to the untreated fruit” value (post-harvest rot; specified doses, end of the refrigeration period (28 days at 5° C.)) of the same compound?
A: The value was 50%.

Q: And the “control capability against the most characteristic diseases of the crops (in words)” value [6]?
A: Its value is “high control capability”.
